# Measurements as given in US20230234938A1 (RHIZEN PHARMACEUTICALS AG, priority 2020, published 2023).
# Like-named read-outs stand apart in the source and are kept apart here.
# What was measured:
# [1] = molecular target: PARP1 (Homo sapiens, UniProt P09874); assay: PARP enzyme assay (PARP1, chemiluminescent histone ribosylation); conditions: for % inhibition 10 nM / % inhibition 100 nM: PARP enzyme assay; for % inhibition 10 nM: 10 nM compound; for % inhibition 100 nM: 100 nM compound
# Experimental: 1) Coat 25 µL of histone solution onto a 384-well plate as described below: • Dilute 5x histone mixture 1:5 with PBS. • Add 25 µL of diluted histone solution to each well and incubate at 4° C. overnight. • Wash the plate three times using 100 µL PBST buffer (1x PBS containing 0.05% Tween20) per well. • Tap plate onto clean paper towel to remove liquid. • Block the wells by adding 100 µL of Blocking buffer 3 to every well. Incubate at room temperature for 1 h 15 minutes. • Wash plate three times with 100 µL PBST buffer as described above. • Tap plate onto clean paper towel to remove liquid.
# 1) Preparation of 1X PARP Buffer: • Prepare 1x PARP buffer by adding 1 part of 10x PARP buffer to 9 parts distilled water (v/v). To prepare 500 µL of 1X PARP buffer, add 50 µL 10X PARP Assay buffer to 450 µL of H2O and mix well.
# 2) Preparation of the Ribosylation master mixture: • N wells x (1.25 µL 10x PARP buffer + 1.25 µL 10X PARP Assay mixture + 2.5 µL Activated DNA + 7.5 µL distilled water). Add 12.5 µL to every well.
# 3) Preparation of the inhibitor solution: • 10 mM stock solution of the inhibitor was prepared in DMSO. From 10 mM stock solution, 250X concentrations of the inhibitor were made in DMSO. • 250X DMSO concentrations of the inhibitor were further diluted to 10X concentrations in 1X kinase buffer. • 2.5 µL (10X concentrations) of kinase buffer containing inhibitor was added to each well. • For the “Positive Control” and “Blank”, add 2.5 µL of kinase buffer containing DMSO (4%) was added. • The final DMSO concentration in the well was 0.4 %.
# 4) Preparation of the enzyme solution: • Thaw PARP1 enzyme on ice. Upon first thaw, briefly spin tube containing enzyme to recover full content of the tube. Calculate the amount of PARP1 required for the assay and dilute enzyme to 2.0 ng/µL with 1x PARP buffer. • Initiate reaction by adding 10 µL of diluted PARP1 enzyme to the wells designated “Positive Control” and “Test Inhibitor”. • To the wells designated as “Blank”, add 10 µL of 1X PARP buffer. • Centrifuge the plate at 1000 rpm for 30 seconds and incubate at room temperature for 60 min. • Discard the reaction mixture after 1 hour, and wash plate three times with 100 µL PBST buffer and tap plate onto clean paper towel as described above.
# 1) Preparation of Streptavidin-HRP: • Dilute Streptavidin-HRP 1:50 in Blocking buffer. • Add 25 µL of diluted Streptavidin-HRP to each well. Incubate for 30 min. at room temperature. • Wash three times with 100 µL PBST buffer and tap plate onto clean paper towel as above as described above.
# 2) Preparation of ECL substrate: • Just before use, mix on ice equal amounts of ELISA ECL Substrate A and ELISA ECL Substrate B and add 50 µL per well. • Immediately read the plate in microtiter-plate in Chemiluminescence setting. The “Blank” value is subtracted from all other values.
# [2] = molecular target: PARP2 (Homo sapiens, UniProt Q9UGN5); assay: PARP enzyme assay (PARP2); type: biochemical
# Source text: Step 2: Ribosylation Reaction
# [3] = tested on: PAR in UWB 1.289 cells; assay: PAR inhibition in UWB 1.289 cells (western blot); type: cell-based, human; conditions: for PAR % inhibition in UWB 1.289 @ 10 nM: 0.01 µM; for inhibition at 0.01 µM: Homo sapiens
# Experimental: Example-3 UWB 1.289 cells were plated at a predetermined density in a 6-well plate in its respective media and plates were incubated at 37° C. and 5% CO2 overnight. After overnight incubation, the plates were treated with desired concentrations of the compound or DMSO and the plates were incubated at 37° C. and 5% CO2 as required for 24 hours. After completion of 24 hours incubation, total cell lysates were prepared from the treated samples. Lysates were analysed by western-blot analysis and probed with Human PAR specific monoclonal antibody or human specific beta-actin monoclonal antibody (loading control). Western-blot images were developed after exposing them to chemiluminescent substrate and images were captured on imaging system. Target specific bands and loading specific bands were measured using densitometric analysis. Densitometric values of target specific bands were normalized to loading control values. % inhibition of PAR was calculated relative to DMSO treated samples. Results: % inhibitions values are given below in Table-2: […]
# [4] = UWB 1.289 cells, 10 nM, 24 hours, western blot relative to DMSO
# [5] = UWB1289, read-out: PAR % inhibition in UWB 1.289 @ 10 nM, UWB 1.289 cells, 10 nM, 24 hours, western blot relative to DMSO
# [6] = UWB1289, 24 h, read-out: PAR % inhibition in UWB 1.289 @ 10 nM, UWB 1.289 cells, 10 nM, 24 hours, western blot relative to DMSO
# [7] = read-out: % inhibition 100 nM, PARP enzyme assay, 100 nM compound
# [8] = read-out: % inhibition 10 nM, PARP enzyme assay, 10 nM compound
# Sequence of PARP2 (Q9UGN5 whole entry, species assumed): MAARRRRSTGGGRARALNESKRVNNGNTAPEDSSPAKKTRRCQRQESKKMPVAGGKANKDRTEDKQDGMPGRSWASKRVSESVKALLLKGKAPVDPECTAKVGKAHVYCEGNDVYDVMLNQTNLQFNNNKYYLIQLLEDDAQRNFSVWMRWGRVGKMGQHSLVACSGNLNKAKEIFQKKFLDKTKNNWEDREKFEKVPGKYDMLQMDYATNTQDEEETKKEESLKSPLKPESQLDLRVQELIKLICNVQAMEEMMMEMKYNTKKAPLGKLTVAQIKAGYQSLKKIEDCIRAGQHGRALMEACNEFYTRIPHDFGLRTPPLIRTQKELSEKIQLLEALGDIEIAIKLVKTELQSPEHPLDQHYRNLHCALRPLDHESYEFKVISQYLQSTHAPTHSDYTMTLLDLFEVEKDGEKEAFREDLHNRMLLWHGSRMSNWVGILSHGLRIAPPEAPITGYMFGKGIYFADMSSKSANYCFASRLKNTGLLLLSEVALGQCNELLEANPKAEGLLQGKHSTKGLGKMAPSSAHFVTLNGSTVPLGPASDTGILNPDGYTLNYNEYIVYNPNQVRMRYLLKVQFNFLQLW
# Sequence of PARP1 (P09874 whole entry, species assumed): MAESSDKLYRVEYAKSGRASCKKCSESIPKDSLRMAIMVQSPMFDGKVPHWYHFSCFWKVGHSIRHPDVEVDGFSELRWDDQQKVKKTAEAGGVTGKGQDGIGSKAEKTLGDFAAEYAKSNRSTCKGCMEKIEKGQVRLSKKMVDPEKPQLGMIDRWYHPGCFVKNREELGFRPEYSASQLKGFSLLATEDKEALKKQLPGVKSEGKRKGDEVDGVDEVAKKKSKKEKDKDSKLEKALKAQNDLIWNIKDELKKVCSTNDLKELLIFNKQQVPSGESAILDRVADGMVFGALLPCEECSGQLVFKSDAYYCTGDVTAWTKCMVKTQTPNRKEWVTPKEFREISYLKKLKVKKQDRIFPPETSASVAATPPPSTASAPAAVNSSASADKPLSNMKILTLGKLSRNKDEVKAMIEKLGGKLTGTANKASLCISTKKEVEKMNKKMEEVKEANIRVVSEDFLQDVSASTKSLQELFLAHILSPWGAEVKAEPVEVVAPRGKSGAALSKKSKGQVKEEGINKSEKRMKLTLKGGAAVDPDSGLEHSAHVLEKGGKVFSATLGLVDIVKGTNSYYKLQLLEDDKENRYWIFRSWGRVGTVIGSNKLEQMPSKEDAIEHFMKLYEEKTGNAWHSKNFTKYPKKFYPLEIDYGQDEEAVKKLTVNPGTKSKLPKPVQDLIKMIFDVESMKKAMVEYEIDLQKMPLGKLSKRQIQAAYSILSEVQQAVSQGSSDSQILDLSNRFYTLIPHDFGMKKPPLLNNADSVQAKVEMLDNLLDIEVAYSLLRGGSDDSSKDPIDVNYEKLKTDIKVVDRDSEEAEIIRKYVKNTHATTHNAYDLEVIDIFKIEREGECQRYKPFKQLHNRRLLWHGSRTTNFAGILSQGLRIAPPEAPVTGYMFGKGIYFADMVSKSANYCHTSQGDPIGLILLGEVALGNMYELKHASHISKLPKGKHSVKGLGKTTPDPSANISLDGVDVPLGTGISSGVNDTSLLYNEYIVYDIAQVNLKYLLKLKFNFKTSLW
Compound,melting point [°C],IC50 [2] [nM],"PAR % inhibition in UWB 1.289 @ 10 nM [3, 4]",IC50 [1] [nM],further results
"CC1(O)C(=O)N(c2cncc(Cc3n[nH]c(=O)c4cc(F)ccc34)c2)c2ccc(F)cc21 (single isomer, unassigned; (-)) [Example 12, (-)-7-Fluoro-4-((5-(5-fluoro-3-hydroxy-3-methyl-2-oxoindolin-1-yl)pyridin-3-yl)methyl)phthalazin-1(2H)-one]",154 to 157,< 10,D (D represents ≤25%),–,% inhibition 10 nM [1]: A (A represents >75% to 100%); % inhibition 100 nM [1]: A (A represents >75% to 100%); IC50 ([1]; read-out: IC50 (nM)-PARP1): < 10 nM
"CC1(O)C(=O)N(c2cc(Cc3n[nH]c(=O)c4cc(F)ccc34)ccn2)c2ccccc21 (single isomer, unassigned; (+)) [Example 23, (+)-7-Fluoro-4-((2-(3-hydroxy-3-methyl-2-oxoindolin-1-yl)pyridin-4-yl)methyl)phthalazin-1(2H)-one]",167 to 170,< 10,D (D represents ≤25%),–,–
"CC1(O)C(=O)N(c2cncc(Cc3n[nH]c(=O)c4ccccc34)c2)c2ccccc21 (stereo not drawn) [Example 1, 4-((5-(3-Hydroxy-3-methyl-2-oxoindolin-1-yl)pyridin-3-yl)methyl)phthalazin-1(2H)-one]",110 to 113,< 10,–,< 10,"inhibition at 0.01 µM ([1]; read-out: % inhibition 10 nM): 75 to 100%; inhibition at 0.1 µM ([1]; read-out: % inhibition 100 nM): 75 to 100%; inhibition at 0.01 µM [3, 5]: 50 to 75%"
"CC1(O)C(=O)N(c2cc(Cc3n[nH]c(=O)c4cc(F)ccc34)ccn2)c2ccc(F)cc21 (stereo not drawn) [Example 24, 7-Fluoro-4-((2-(5-fluoro-3-hydroxy-3-methyl-2-oxoindolin-1-yl)pyridin-4-yl)methyl)phthalazin-1(2H)-one]",225 to 228,< 10,–,< 10,"inhibition at 0.01 µM [3, 5]: 25 to 50%"
"CC1(O)C(=O)N(c2cc(Cc3n[nH]c(=O)c4cc(F)ccc34)ccn2)c2ccccc21 (single isomer, unassigned; (-)) [Example 22, (-)-7-Fluoro-4-((2-(3-hydroxy-3-methyl-2-oxoindolin-1-yl)pyridin-4-yl)methyl)phthalazin-1(2H)-one]",165 to 168,< 10,–,–,"inhibition at 0.01 µM [3, 6]: 25 to 50%"
"CC1(O)C(=O)N(c2cncc(Cc3n[nH]c(=O)c4ccccc34)c2)c2ccc(F)cc21 (single isomer, unassigned; (-)) [Example 15, (-)-4-((5-(5-Fluoro-3-hydroxy-3-methyl-2-oxoindolin-1-yl)pyridin-3-yl)methyl)phthalazin-1(2H)-one]",197 to 200,< 10,D (D represents ≤25%),–,% inhibition 10 nM ([1]; 0.01 µM): A (A represents >75% to 100%); % inhibition 100 nM [1]: A (A represents >75% to 100%); IC50 ([1]; read-out: IC50 (nM)-PARP1): < 10 nM
"CC1(O)C(=O)N(c2cncc(Cc3n[nH]c(=O)c4ccccc34)c2)c2ccc(F)cc21 (single isomer, unassigned; (+)) [Example 14, (+)-4-((5-(5-Fluoro-3-hydroxy-3-methyl-2-oxoindolin-1-yl)pyridin-3-yl)methyl)phthalazin-1(2H)-one]",198 to 201,< 10,A (A represents >75% to 100%),< 10,"% inhibition 10 nM ([1]; 0.01 µM): B (B represents >50% to ≤75%); inhibition at 0.1 µM [1, 7]: 75 to 100%"
"CC1(O)C(=O)N(c2cc(Cc3n[nH]c(=O)c4ccccc34)ccn2)c2ccccc21 (single isomer, unassigned; (+)) [Example 20, (+)-4-((2-(3-Hydroxy-3-methyl-2-oxoindolin-1-yl)pyridin-4-yl)methyl)phthalazin-1(2H)-one]",205 to 208,< 10,–,–,"% inhibition 10 nM [1]: A (A represents >75% to 100%); % inhibition 100 nM [1]: A (A represents >75% to 100%); IC50 ([1]; read-out: IC50 (nM)-PARP1): < 10 nM; inhibition at 0.01 µM [3, 6]: 50 to 75%"
"C[C@@]1(O)C(=O)N(c2cncc(Cc3n[nH]c(=O)c4ccccc34)c2)c2ccccc21 [Example 3, (S)-(-)-4-((5-(3-Hydroxy-3-methyl-2-oxoindolin-1-yl)pyridin-3-yl)methyl)phthalazin-1(2H)-one]",94 to 97,< 10,–,< 10,"inhibition at 0.01 µM [3, 6]: < 25%"
"C[C@]1(O)C(=O)N(c2cncc(Cc3n[nH]c(=O)c4ccccc34)c2)c2ccccc21 [Example 2, (R)-(+)-4-((5-(3-Hydroxy-3-methyl-2-oxoindolin-1-yl)pyridin-3-yl)methyl)phthalazin-1(2H)-one]",–,< 10,–,< 10,"inhibition at 0.01 µM [3, 6]: 75 to 100%"
"CC1(O)C(=O)N(c2cncc(Cc3n[nH]c(=O)c4cc(F)ccc34)c2)c2ccccc21 (single isomer, unassigned; (-)) [Example 8, (-)-7-Fluoro-4-((5-(3-hydroxy-3-methyl-2-oxoindolin-1-yl)pyridin-3-yl)methyl)phthalazin-1(2H)-one]",138 to 141,< 10,C (C represents >25% to ≤50%),–,–
"CC1(O)C(=O)N(c2cc(Cc3n[nH]c(=O)c4ccccc34)ccn2)c2ccccc21 (single isomer, unassigned; (-)) [Example 19, (-)-4-((2-(3-Hydroxy-3-methyl-2-oxoindolin-1-yl)pyridin-4-yl)methyl)phthalazin-1(2H)-one]",207 to 210,< 10,–,< 10,"inhibition at 0.01 µM [1, 8]: 75 to 100%; inhibition at 0.1 µM [1, 7]: 75 to 100%"
"CC1(O)C(=O)N(c2cc(Cc3n[nH]c(=O)c4ccccc34)ccn2)c2ccccc21 (stereo not drawn) [Example 18, 4-((2-(3-hydroxy-3-methyl-2-oxoindolin-1-yl)pyridin-4-yl)methyl)phthalazin-1(2H)-one]",203 to 205,< 10,–,< 10,inhibition at 0.01 µM ([1]; read-out: % inhibition 10 nM): 75 to 100%; inhibition at 0.1 µM ([1]; read-out: % inhibition 100 nM): 75 to 100%
"O=C1N(c2cncc(Cc3n[nH]c(=O)c4ccccc34)c2)c2ccccc2C1(O)C(F)(F)F (stereo not drawn) [Example 25, 4-((5-(3-Hydroxy-2-oxo-3-(trifluoromethyl)indolin-1-yl)pyridin-3-yl)methyl)phthalazin-1(2H)-one]",258 to 260,< 10,–,< 10,"inhibition at 0.01 µM ([1]; read-out: % inhibition 10 nM): 75 to 100%; inhibition at 0.1 µM ([1]; read-out: % inhibition 100 nM): 75 to 100%; inhibition at 0.01 µM [3, 5]: 25 to 50%"
"CC1(O)C(=O)N(c2cc(Cc3n[nH]c(=O)c4cc(F)ccc34)ccn2)c2ccccc21 (stereo not drawn) [Example 21, 7-Fluoro-4-((2-(3-hydroxy-3-methyl-2-oxoindolin-1-yl)pyridin-4-yl)methyl)phthalazin-1(2H)-one]",187 to 189,> 10,–,–,"inhibition at 0.01 µM [3, 5]: 25 to 50%"
"CC1(O)C(=O)N(c2cncc(Cc3n[nH]c(=O)c4cc(F)ccc34)c2)c2ccc(F)cc21 (single isomer, unassigned; (+)) [Example 11, (+)-7-Fluoro-4-((5-(5-fluoro-3-hydroxy-3-methyl-2-oxoindolin-1-yl)pyridin-3-yl)methyl)phthalazin-1(2H)-one]",148 to 151,< 10,A (A represents >75% to 100%),< 10,"inhibition at 0.01 µM [1, 8]: 75 to 100%; inhibition at 0.1 µM [1, 7]: 75 to 100%"
"CC1(O)C(=O)N(c2cncc(Cc3n[nH]c(=O)c4cc(F)ccc34)c2)c2ccccc21 (single isomer, unassigned; (+)) [Example 7, (+)-7-Fluoro-4-((5-(3-hydroxy-3-methyl-2-oxoindolin-1-yl)pyridin-3-yl)methyl)phthalazin-1(2H)-one]",148 to 151,< 10,A (A represents >75% to 100%),–,–
